# Data: article PMC5618426, “APETx4, a Novel Sea Anemone Toxin and a Modulator of the Cancer-Relevant Potassium Channel KV10.1” (Marine Drugs, 2017)
# Tests used:
# KV2.1 = conditions: ref [46]; cited from earlier work
# Description: APETx1 is proposed to bind to the voltage sensor paddle of hERG. In particular, the negative charge of E518 is expected to form an electrostatic interaction with the toxin [44]. Several other kinds of gating modifier toxins also bind to the extracellular exposed part of the S3–S4 domain. More precisely by binding to a glutamic acid residue and several hydrophobic amino acid residues. An example of these toxins is Hanatoxin (HaTx1) from the tarantula Grammostola spatulata.
# hERG = conditions: cited from earlier work
# ASIC3 = conditions: cited from earlier work
# KV10.1 = KV10.1 inhibition by related toxins (unpublished data); format: cell-based
molecule,measurement,setting,value
"HaTx1: toxin from the tarantula Grammostola spatulata (ECRYLFGGCKTTSDCCKHLGCKFRDKYCAWDFTFS; UniProt P56852 50-84, looked up)",gating modification of KV2.1,KV2.1,modifies the channel gating of KV2.1
COc1ccc(CCN2CCC(Nc3nc4ccccc4n3Cc3ccc(F)cc3)CC2)cc1 [astemizole],block of hERG (KV11.1),hERG,"block the cardiac human Eag-related gene (hERG, KV11.1)"
APETx2,IC50,ASIC3,~0.063 µM
same,IC50,hERG,~1.2 µM
same,effect on KV10.1,KV10.1,no effect on KV10.1
